Results from US10538487B2, “Sulfonylureas and related compounds and use of same” (priority 2015, dated 2020).
Read-outs that look alike come from different tables or passages of the source.

Legend:
[1] = molecular target: NLRP3 inflammasome (Mus musculus, UniProt Q8R4B8); assay: Inhibition of IL-1β release, NLRP3 inflammasome activation assay in BMDM; assay type: cell-based
Method: (§1) The following assays can be used to determine inhibitory activity of test compounds on the NLRP3 inflammasome using common stimuli such as adenosine triphosphate, nigericin, LeuLeu-OMe or monosodium urate crystals (MSU).
Mouse bone marrow-derived macrophages (BMDM) were derived from bone marrow progenitors isolated from the femurs and tibias of C57BL/6 mice.
BMDM are seeded at 1×10^5/ml. The following day the overnight medium is replaced and cells are stimulated with Ultrapure lipopolysaccharide from Escherichia coli K12 strain (InvivoGen) for 3 h. Medium is removed and replaced with serum free medium (SFM) containing test compound 30 min prior to NLRP3 stimulation. […] ATP can be sourced from Sigma Aldrich, nigericin and MSU from Invivogen and LeuLeu-Ome from Chem-Impex International.
(§2) For ELISA and cell death assays cells are seeded in 96 well plates. Supernatants are removed and analysed using ELISA kits according to the manufacturer's instructions (DuoSet® R&D Systems, ReadySetGo!® eBioscience, BD OptEIA™, or Perkin Elmer AlphaLISA®). Cell death is assessed by measurement of LDH release relative to a 100% cell lysis control using the CytoTox96® non-radioactive cytotoxicity assay (Promega).

[2] = molecular target: NLRP3 inflammasome (Homo sapiens, UniProt Q96P20); assay: Inhibition of IL-1β release, NLRP3 inflammasome activation assay in HMDM; assay type: cell-based
Method: as §1
To generate HMDM, human monocytes are isolated from buffy coat blood using Ficoll-Plaque Plus (GE Healthcare) and density centrifugation. CD14^+ cell selection is performed using MACS magnetic beads (Miltenyl Biotec).
HMDM are seeded at 1×10^5/ml. […] Medium is removed and replaced with serum free medium (SFM) containing test compound 30 min prior to NLRP3 stimulation. […] ATP can be sourced from Sigma Aldrich, nigericin and MSU from Invivogen and LeuLeu-Ome from Chem-Impex International.
as §2

[3] = inhibition of IL-1β release, class symbols, read-out: Avg. IL-1β IC50 Murine BMDM
[4] = inhibition of IL-1β release, numeric bounds, read-out: Avg. IL-1β IC50 Murine BMDM
[5] = inhibition of IL-1β release, class symbols, read-out: Avg. IL-1β IC50 HMDM

Chain of NLRP3 inflammasome (Mus musculus, UniProt Q8R4B8) (Q8R4B8 whole entry): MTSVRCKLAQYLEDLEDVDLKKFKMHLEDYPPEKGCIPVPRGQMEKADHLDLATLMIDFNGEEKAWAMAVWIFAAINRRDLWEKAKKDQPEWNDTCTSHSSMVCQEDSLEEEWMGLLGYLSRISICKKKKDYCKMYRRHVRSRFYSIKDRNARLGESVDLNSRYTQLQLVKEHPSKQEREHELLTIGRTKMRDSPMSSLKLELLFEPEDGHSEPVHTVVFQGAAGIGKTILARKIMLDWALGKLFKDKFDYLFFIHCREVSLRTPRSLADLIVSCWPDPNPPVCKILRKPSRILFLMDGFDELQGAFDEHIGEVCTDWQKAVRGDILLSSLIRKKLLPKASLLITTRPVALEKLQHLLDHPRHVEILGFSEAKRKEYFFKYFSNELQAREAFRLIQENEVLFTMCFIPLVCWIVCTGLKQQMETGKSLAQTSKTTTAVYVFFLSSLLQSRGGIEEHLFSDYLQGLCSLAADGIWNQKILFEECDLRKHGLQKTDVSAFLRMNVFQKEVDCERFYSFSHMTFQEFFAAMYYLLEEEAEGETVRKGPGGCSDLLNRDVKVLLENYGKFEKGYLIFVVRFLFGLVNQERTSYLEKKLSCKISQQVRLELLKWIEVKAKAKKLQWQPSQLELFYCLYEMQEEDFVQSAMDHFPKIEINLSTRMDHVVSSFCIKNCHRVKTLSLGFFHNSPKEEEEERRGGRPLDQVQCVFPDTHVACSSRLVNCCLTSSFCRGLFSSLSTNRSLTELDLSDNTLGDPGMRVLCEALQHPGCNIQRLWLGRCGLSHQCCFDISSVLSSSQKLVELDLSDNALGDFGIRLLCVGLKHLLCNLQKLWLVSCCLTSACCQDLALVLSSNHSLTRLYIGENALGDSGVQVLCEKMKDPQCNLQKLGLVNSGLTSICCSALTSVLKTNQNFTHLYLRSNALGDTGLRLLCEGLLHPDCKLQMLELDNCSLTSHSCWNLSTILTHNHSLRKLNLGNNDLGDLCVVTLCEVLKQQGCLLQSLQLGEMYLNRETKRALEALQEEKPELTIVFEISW
Chain of NLRP3 inflammasome (Homo sapiens, UniProt Q96P20) (Q96P20 whole entry): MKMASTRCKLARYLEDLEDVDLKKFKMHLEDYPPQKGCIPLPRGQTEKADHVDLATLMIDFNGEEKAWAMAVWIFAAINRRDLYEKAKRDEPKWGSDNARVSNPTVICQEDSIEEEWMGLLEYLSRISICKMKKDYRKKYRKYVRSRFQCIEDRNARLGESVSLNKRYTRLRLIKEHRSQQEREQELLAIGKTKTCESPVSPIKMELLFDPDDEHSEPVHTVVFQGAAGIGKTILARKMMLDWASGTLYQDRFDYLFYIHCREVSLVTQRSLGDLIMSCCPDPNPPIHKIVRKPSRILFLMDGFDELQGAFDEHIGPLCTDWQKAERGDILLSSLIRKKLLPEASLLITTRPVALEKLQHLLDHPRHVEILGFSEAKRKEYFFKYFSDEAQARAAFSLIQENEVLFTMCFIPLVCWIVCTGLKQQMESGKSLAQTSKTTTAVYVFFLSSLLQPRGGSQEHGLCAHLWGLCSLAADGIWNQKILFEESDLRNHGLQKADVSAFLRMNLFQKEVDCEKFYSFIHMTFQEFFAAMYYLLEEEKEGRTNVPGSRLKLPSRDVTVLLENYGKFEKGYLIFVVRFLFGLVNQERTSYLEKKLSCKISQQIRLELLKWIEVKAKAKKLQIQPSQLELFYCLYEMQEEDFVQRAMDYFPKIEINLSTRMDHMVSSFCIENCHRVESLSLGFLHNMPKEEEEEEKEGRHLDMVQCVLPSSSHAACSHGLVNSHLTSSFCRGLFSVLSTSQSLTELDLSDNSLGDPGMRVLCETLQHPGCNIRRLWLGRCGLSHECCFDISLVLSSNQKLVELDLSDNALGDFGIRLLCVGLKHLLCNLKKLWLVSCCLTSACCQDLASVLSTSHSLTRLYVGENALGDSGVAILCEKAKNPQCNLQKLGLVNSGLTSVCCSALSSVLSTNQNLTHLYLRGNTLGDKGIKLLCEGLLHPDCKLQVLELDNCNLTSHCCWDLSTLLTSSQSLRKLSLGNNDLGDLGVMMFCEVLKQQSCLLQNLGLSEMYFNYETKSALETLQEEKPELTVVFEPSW

SMILES	IC50 [1, 3]	other results
CC(C)(O)c1coc(S(=O)(=O)NC(=O)Nc2c3c(cc4c2OCC4)OCC3)c1 [4-(2-hydroxypropan-2-yl)-N-((2,3,6,7-tetrahydrobenzo[1,2-b:4,5-b′]difuran-4-yl)carbamoyl)furan-2-sulfonamide]	< 1 µM	–
COc1ccccc1NC(=O)NS(=O)(=O)c1cc(C(C)(C)O)co1 [4-(2-hydroxypropan-2-yl)-N-((2-methoxyphenyl)carbamoyl)furan-2-sulfonamide]	< 10 µM	–
CC(C)(O)c1coc(S(=O)(=O)NC(=O)Nc2c3c(cc4c2CCO4)CCC3)c1 [4-(2-hydroxypropan-2-yl)-N-((3,5,6,7-tetrahydro-2H-indeno[5,6-b]furan-4-yl)carbamoyl)furan-2-sulfonamide]	< 0.1 µM	–
CC(C)(O)c1coc(S(=O)(=O)NC(=O)Nc2c3c(cc4c2OCC4)CCC3)c1 [4-(2-hydroxypropan-2-yl)-N-((3,5,6,7-tetrahydro-2H-indeno[5,6-b]furan-8-yl)carbamoyl)furan-2-sulfonamide]	< 0.1 µM	–
O=C(Nc1c2c(cc3c1CCC3)CCC2)NS(=O)(=O)c1cc(C(=O)O)co1 [5-(N-((1,2,3,5,6,7-hexahydro-s-indacen-4-yl)carbamoyl)sulfamoyl)furan-3-carboxylic acid]	< 10 µM	–
CC(C)n1ccc(S(=O)(=O)NC(=O)Nc2c(C(=O)N(C)C)cc(Cl)cc2C2CC2)n1 [5-chloro-3-cyclopropyl-2-(3-((1-isopropyl-1H-pyrazol-3-yl)sulfonyl)ureido)-N,N-dimethylbenzamide]	–	IC50 [1, 4]: > 10 µM
CC(C)c1cc(Cl)cc(C(C)C)c1NC(=O)NS(=O)(=O)c1ccc2cc(Cl)ccc2c1 [6-chloro-N-((4-chloro-2,6-diisopropylphenyl)carbamoyl)naphthalene-2-sulfonamide]	< 0.1 µM	–
Cc1cc(C(=O)NCCc2ccc(S(N)(=O)=O)cc2)no1 [Glisoxepide Precursor, reference compound]	–	IC50 ([1]; commercial compounds (Table 9), read-out: BMDM IC50 vs NLRP3): > 10000 µM
Cc1oc(S(=O)(=O)NC(=O)Nc2c3c(cc4c2CCC4)CCC3)cc1C(C)(C)O [N-((1,2,3,5,6,7-hexahydro-s-indacen-4-yl)carbamoyl)-4-(2-hydroxypropan-2-yl)-5-methylfuran-2-sulfonamide]	< 0.1 µM	–
O=C(Nc1c2c(cc3c1CCC3)CCC2)NS(=O)(=O)c1ccc([N+](=O)[O-])cc1 [N-((1,2,3,5,6,7-hexahydro-s-indacen-4-yl)carbamoyl)-4-nitrobenzenesulfonamide]	< 0.1 µM	–
O=C(Nc1c2c(cc3c1CCC3)CCC2)NS(=O)(=O)c1nnc[nH]1 [N-((1,2,3,5,6,7-hexahydro-s-indacen-4-yl)carbamoyl)-4H-1,2,4-triazole-3-sulfonamide]	< 0.1 µM	–
O=C(Nc1c2c(cc3c1CCC3)CCC2)NS(=O)(=O)c1cn2c(n1)CCC2 [N-((1,2,3,5,6,7-hexahydro-s-indacen-4-yl)carbamoyl)-6,7-dihydro-5H-pyrrolo[1,2-a]imidazole-2-sulfonamide]	< 1 µM	–
CC(C)(O)c1coc(S(=O)(=O)NC(=O)Nc2cccc3c2OCCO3)c1 [N-((2,3-dihydrobenzo[b][1,4]dioxin-5-yl)carbamoyl)-4-(2-hydroxypropan-2-yl)furan-2-sulfonamide]	< 10 µM	–
CC(C)(O)c1coc(S(=O)(=O)NC(=O)Nc2cccc3c2OCC3)c1 [N-((2,3-dihydrobenzofuran-7-yl)carbamoyl)-4-(2-hydroxypropan-2-yl)furan-2-sulfonamide]	< 50 µM	–
COc1ccc(OC)c(NC(=O)NS(=O)(=O)c2cc(C(C)(C)O)co2)c1 [N-((2,5-dimethoxyphenyl)carbamoyl)-4-(2-hydroxypropan-2-yl)furan-2-sulfonamide]	< 10 µM	–
CC(C)n1ccc(S(=O)(=O)NC(=O)Nc2nc(C(C)(C)C)cc(C(C)(C)C)n2)n1 [N-((4,6-di-tert-butylpyrimidin-2-yl)carbamoyl)-1-isopropyl-1H-pyrazole-3-sulfonamide]	–	IC50 [1, 4]: > 10 µM
Cc1cc(C)nc(NC(=O)NS(=O)(=O)c2ccn(C(C)C)n2)n1 [N-((4,6-dimethylpyrimidin-2-yl)carbamoyl)-1-isopropyl-1H-pyrazole-3-sulfonamide]	–	IC50 [1, 4]: > 10 µM
CC(C)(O)c1coc(S(=O)(=O)NC(=O)Nc2c3c(c(Br)c4c2OCC4)CCC3)c1 [N-((4-bromo-3,5,6,7-tetrahydro-2H-indeno[5,6-b]furan-8-yl)carbamoyl)-4-(2-hydroxypropan-2-yl)furan-2-sulfonamide]	< 0.1 µM	–
CC(C)(O)c1coc(S(=O)(=O)NC(=O)Nc2c(C3CC3)cc(Cl)cc2C2CC2)c1 [N-((4-chloro-2,6-dicyclopropylphenyl)carbamoyl)-4-(2-hydroxypropan-2-yl)furan-2-sulfonamide]	< 0.1 µM	–
CCc1noc2ncc(S(=O)(=O)NC(=O)Nc3c(C(C)C)cc(Cl)cc3C(C)C)cc12 [N-((4-chloro-2,6-diisopropylphenyl)carbamoyl)-3-ethylisoxazolo[5,4-b]pyridine-5-sulfonamide]	< 10 µM	–
CC(C)c1cc(Cl)cc(C(C)C)c1NC(=O)NS(=O)(=O)c1ccc2c(c1)CCCC2 [N-((4-chloro-2,6-diisopropylphenyl)carbamoyl)-5,6,7,8-tetrahydronaphthalene-2-sulfonamide]	< 0.1 µM	–
COc1cc(NC(=O)NS(=O)(=O)c2cccc(C3(C(F)(F)F)N=N3)c2)c2ncccc2c1 [N-((6-methoxyquinolin-8-yl)carbamoyl)-3-(3-(trifluoromethyl)-3H-diazirin-3-yl)benzenesulfonamide]	–	IC50 [2, 5]: < 50 µM
O=C(Nc1cccc2ncccc12)NS(=O)(=O)c1cccc(C2(C(F)(F)F)N=N2)c1 [N-(quinolin-5-ylcarbamoyl)-3-(3-(trifluoromethyl)-3H-diazirin-3-yl)benzenesulfonamide]	–	IC50 [2, 5]: < 50 µM
O=C(Nc1cccc2cccnc12)NS(=O)(=O)c1cccc(C2(C(F)(F)F)N=N2)c1 [N-(quinolin-8-ylcarbamoyl)-3-(3-(trifluoromethyl)-3H-diazirin-3-yl)benzenesulfonamide]	–	IC50 [2, 5]: < 10 µM
CN(C)S(=O)(=O)NC(=O)Nc1c2c(cc3c1CCC3)CCC2 [N-[1,2,3,5,6,7-hexahydro-s-indacen-4-yl]-N′-[(dimethylamino)sulfonyl]urea]	–	IC50 [2, 5]: < 10 µM
Cc1ccc(S(=O)(=O)NC(=O)NN2CCCCCC2)cc1 [Tolazamide, reference compound]	–	IC50 ([2]; commercial compounds (Table 9), read-out: HMDM IC50 vs NLRP3): > 200 µM
CC(C)c1cc(Cl)cc(C(C)C)c1NC(=O)NS(=O)(=O)c1ccn(C(C)C)n1 [sodium ((4-chloro-2,6-diisopropylphenyl)carbamoyl)((1-isopropyl-1H-pyrazol-3-yl)sulfonyl)amide]	–	IC50 [2, 5]: < 1 µM
CC(C)c1cc(Cl)cc(C(C)C)c1NC(=O)NS(=O)(=O)c1cc(C(C)(C)O)co1 [sodium ((4-chloro-2,6-diisopropylphenyl)carbamoyl)((4-(2-hydroxypropan-2-yl)furan-2-yl)sulfonyl)amide]	–	IC50 [2, 5]: < 0.1 µM
CC(C)c1cc(Cl)cc(C(C)C)c1NC(=O)NS(=O)(=O)c1cc(C(C)(C)O)n(C)n1 [sodium ((4-chloro-2,6-diisopropylphenyl)carbamoyl)((5-(2-hydroxypropan-2-yl)-1-methyl-1H-pyrazol-3-yl)sulfonyl)amide]	–	IC50 [2, 5]: < 0.1 µM
CC(C)c1cc(Cl)cc(C(C)C)c1NC(=O)NS(=O)(=O)c1cc(C(C)(C)O)n(-c2ccccc2)n1 [sodium ((4-chloro-2,6-diisopropylphenyl)carbamoyl)((5-(2-hydroxypropan-2-yl)-1-phenyl-1H-pyrazol-3-yl)sulfonyl)amide]	–	IC50 [2, 5]: < 0.1 µM
